Values of other authors as cited in patent US20030232417A1, “Process” (priority 2001, published 2003).

Test system: fungi
Details: limited number of fungi tested

SMILES: O=C1C=CCOC1(O)CO (stereo not shown) [microthecin, 2-hydroxy-2-(hydroxymethyl)-2H-pyran-3(6H)-one]
- antifungal activity: antifungal against a limited number of fungi tested
